Measured values from ChEMBL document CHEMBL3785076, “Disposition of valproic acid in man” (Eur J Clin Pharmacol, 1977).

Tests used:
[1] = Plasma concentration in healthy human subjects (6 subjects) at 600 mg, po administered as single enteric-coated compound dose measured after 2 hrs by GLC method; assay type: ADME, organism-based
[2] = Plasma concentration in healthy human subjects (6 subjects) at 600 mg, po administered as single enteric-coated compound dose measured after 3 hrs by GLC method; assay type: ADME, organism-based
[3] = Plasma concentration in healthy human subjects (6 subjects) at 600 mg, po administered as single enteric-coated compound dose measured after 4 hrs by GLC method; assay type: ADME, organism-based
[4] = Plasma concentration in healthy human subjects (6 subjects) at 600 mg, po administered as single enteric-coated compound dose measured after 6 hrs by GLC method; assay type: ADME, organism-based
[5] = Plasma concentration in healthy human subjects (6 subjects) at 600 mg, po administered as single enteric-coated compound dose measured after 10 hrs by GLC method; assay type: ADME, organism-based
[6] = Plasma concentration in healthy human subjects (6 subjects) at 600 mg, po administered as single enteric-coated compound dose measured after 24 hrs by GLC method; assay type: ADME, organism-based
[7] = Plasma concentration in healthy human subjects (6 subjects) at 600 mg, po administered as single enteric-coated compound dose measured after 30 hrs by GLC method; assay type: ADME, organism-based
[8] = Plasma concentration in healthy human subjects (6 subjects) at 600 mg, po administered as single enteric-coated compound dose measured after 48 hrs by GLC method; assay type: ADME, organism-based
[9] = Plasma concentration in healthy human subjects (6 subjects) at 600 mg, po administered as single enteric-coated compound dose measured after 72 hrs by GLC method; assay type: ADME, organism-based
Homo sapiens [10] = assay: Drug lag time in healthy human subjects (6 subjects) at 600 mg, po administered as single enteric-coated compound dose measured by GLC method; assay type: ADME, organism-based; details: in vivo
[11] = Tmax in healthy human subjects (6 subjects) at 600 mg, po administered as single enteric-coated compound dose measured by GLC method; assay type: ADME, organism-based; details: in vivo
[12] = Elimination rate constant during beta-phase in healthy human subjects (6 subjects) at 600 mg, po administered as single enteric-coated compound dose measured by GLC method; assay type: ADME, organism-based; details: in vivo
[13] = Terminal half life in healthy human subjects (6 subjects) at 600 mg, po administered as single enteric-coated compound dose measured by GLC method; assay type: ADME, organism-based; details: in vivo, read-out: beta t1/2 (converted)
[14] = AUC in healthy human subjects (6 subjects) at 600 mg, po administered as single enteric-coated compound dose measured by GLC method; assay type: ADME, organism-based; details: in vivo
Homo sapiens [15] = assay: Apparent volume of distribution in healthy human subjects (6 subjects) at 600 mg, po administered as single enteric-coated compound dose measured by GLC method; assay type: ADME, organism-based; details: in vivo
[16] = Total plasma clearance in healthy human subjects (6 subjects) at 600 mg, po administered as single enteric-coated compound dose measured by GLC method; assay type: ADME, organism-based
Homo sapiens [17] = assay: Mean steady state plasma concentration in healthy human subjects (6 subjects) at 1200 mg, po for 12 days administered as enteric-coated compound dose by GLC method; assay type: ADME, organism-based; details: in vivo, 288 h
[18] = Steady state plasma concentration before morning dose in healthy human subjects (6 subjects) at 1200 mg, po for 12 days administered as enteric-coated compound dose by GLC method; assay type: ADME, organism-based; details: read-out: Cpss
[19] = Half life at steady state in healthy human subjects (6 subjects) at 1200 mg, po for 12 days administered as enteric-coated compound dose by GLC method; assay type: ADME, organism-based; details: in vivo, read-out: t1/2ss (converted)
[20] = Plasma protein binding in healthy human subjects (6 subjects) measured under steady state conditions by equilibrium dialysis method; assay type: ADME, cell-free; details: read-out: PPB (converted)
[21] = Plasma protein binding in healthy human subjects (6 subjects) assessed as unbound fraction level measured under steady state conditions by equilibrium dialysis method; assay type: ADME, cell-free
[22] = Drug concentration in saliva of healthy human subjects (6 subjects) at 600 mg, po administered as single enteric-coated compound; assay type: ADME, organism-based; details: in vivo
[23] = Drug concentration in saliva of healthy human subjects (6 subjects) at 1200 mg, po for 12 days administered as enteric-coated compound dose measured under steady state conditions by GLC method relative to plasma drug level; assay type: ADME, organism-based; details: in vivo, 288 h
[24] = Ratio of urinary excretion of valproic acid to urinary excretion of VPA-conjugates in healthy human subjects (6 subjects) at 600 mg, po administered as single enteric-coated compound; assay type: ADME, organism-based, Urine; details: in vivo
[25] = Ratio of urinary excretion of valproic acid to urinary excretion of VPA-conjugates in healthy human subjects (6 subjects) at 1200 mg, po for 12 days administered as enteric-coated compound dose measured during 24 hrs relative to total drug excretion; assay type: ADME, organism-based, Urine; details: in vivo
[26] = Half life in human measured over 24 hrs; assay type: ADME, organism-based; details: in vivo

For `CCCC(CCC)C(=O)[O-].[Na+]` [VALPROATE SODIUM], which concentration at 2 h [1] is on record?
Its concentration at 2 h is 10300 ng/mL.

And the concentration at 3 h [2]?
The concentration at 3 h was 42800 ng/mL.

And the concentration at 4 h [3]?
The concentration at 4 h was 58100 ng/mL.

And the concentration at 6 h [4]?
Its concentration at 6 h is 53200 ng/mL.

What about the concentration at 10 h [5] of the same molecule?
Its concentration at 10 h is 38400 ng/mL.

And the concentration at 24 h [6]?
The concentration at 24 h was 17600 ng/mL.

And the concentration at 30 h [7]?
Its concentration at 30 h is 14000 ng/mL.

And the concentration at 48 h [8]?
The concentration at 48 h was 6500 ng/mL.

What about the concentration at 72 h [9] of the same molecule?
The concentration at 72 h was 2500 ng/mL.

What about the Tlag (Homo sapiens [10]) of the same molecule?
Its Tlag is 1.3 h.

What about the Tmax [11] of the same molecule?
Its Tmax is 3.7 h.

What about the k el [12] of the same molecule?
Its k el is 1.25e-05 s⁻¹.

What about the half-life [13] of the same molecule?
The half-life was 15.9 h.

And the AUC [14]?
Its AUC is 1210 µg·h/mL.

And the Vbeta (Homo sapiens [15])?
The Vbeta was 0.15 L/kg.

And the CL/F [16]?
The CL/F was 0.107 mL/min/kg.

And the Cpss (Homo sapiens [17])?
The Cpss was 81.3 µg/mL.

And the concentration at 288 h [18]?
The concentration at 288 h was 75300 ng/mL.

And the half-life [19]?
Its half-life is 17.3 h.

And the fraction unbound [20]?
Its fraction unbound is 0.067.

What about the fraction unbound [21] of the same molecule?
Its fraction unbound is 0.067.

And the Drug uptake [22]?
The Drug uptake was < 0.5 µg/mL.

And the Drug uptake [23]?
The Drug uptake was 1.3%.

And the Ratio [24]?
The Ratio was 0.158.

What about the Ratio [25] of the same molecule?
The Ratio was 1.127.

What about the half-life [26] of the same molecule?
The half-life was 8 h.
